According to patent US11584726B2 (Beijing Foreland Pharma Co., Ltd., priority 2017, dated 2023):

Legend:
[1] = test system: CD8 on peripheral blood cell; experiment: Effects on the expression of CD8 on peripheral blood cell in mice (flow cytometry); format: in vivo, mice (C57 BL/6); conditions: intragastric, once a day for four days, mouse peripheral blood
Description: (§1) FITC Rat Anti-Mouse CD8a: BD, Cat. #553030.
(§2) PE Rat Anti-Mouse CD4: BD, Cat. #557308.
(§3) APC Rat Anti-Mouse CD19: BD, Cat. #561738.
(§4) The compounds used in the test were prepared by the chemical department of Beijing Forelandpharma Co. Ltd.
(§5) Routs of administration: intragastric administration, once a day, and continuous administration for four days.
(§6) After the administration, supraorbital venous blood was collected from the mouse, added to an EP tube (1.5 ml) containing an anticoagulant, and kept on the ice. The resulting mixture was transferred to a test tube, centrifuged at 4° C. and 1200 rpm/min for 5 min, removed with the supernatant liquid, added with a lysate, processed with cell lysis on the ice for 5 min, then pre-dyed, added with diluted antibody, and incubated away from light for 30 min. After the incubation, the resulting mixture was washed, removed with the supernatant liquid, added with stationary liquid, and kept in a refrigerator at 4° C. away from light for the test of flow cytometry.

[2] = test system: CD19 on peripheral blood cell; experiment: Effects on the expression of CD19 on peripheral blood cell in mice (flow cytometry); format: in vivo, mice (C57 BL/6); conditions: intragastric, once a day for four days, mouse peripheral blood
Description: as §1, §2, §3, §4, §5, §6

[3] = test system: CD4 on peripheral blood cell; experiment: Effects on the expression of CD4 on peripheral blood cell in mice (flow cytometry); format: in vivo, mice (C57 BL/6); conditions: intragastric, once a day for four days, mouse peripheral blood
Description: as §1, §2, §3, §4, §5, §6

S1P3 = S1P3 (Homo sapiens (Human), UniProt Q99500); experiment: PathHunter β-arrestin test S1P3; format: cell-based; conditions: PathHunter β-arrestin engineering cells
Sequence of S1P3 (Q99500 whole entry, species assumed): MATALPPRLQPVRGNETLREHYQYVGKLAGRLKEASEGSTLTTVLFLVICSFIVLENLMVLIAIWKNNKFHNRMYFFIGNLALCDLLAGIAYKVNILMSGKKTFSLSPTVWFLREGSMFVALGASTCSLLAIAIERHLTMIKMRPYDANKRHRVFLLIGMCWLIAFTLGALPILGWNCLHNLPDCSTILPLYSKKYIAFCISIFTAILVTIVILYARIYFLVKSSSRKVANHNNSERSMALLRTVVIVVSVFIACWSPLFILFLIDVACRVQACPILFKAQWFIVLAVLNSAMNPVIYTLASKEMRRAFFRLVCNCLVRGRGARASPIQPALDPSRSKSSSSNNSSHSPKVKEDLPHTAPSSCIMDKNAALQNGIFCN
Description: (§7) 1. PathHunter β-arrestin testing system was used to detect the biological activity of the compounds.
(§8) 2. β-arrestin engineering cells were cultured on […] culture plates and placed in an incubator at 37° C.
(§9) 3. The sample to be tested was diluted with reaction solution in 5-fold dilution.
(§10) 4. The diluted sample to be tested was added to the engineering cells and the reaction was induced and observed.
(§11) 5. The chemiluminescence signal produced in the test may be detected by multifunctional enzyme marker (PerkinElmer Envision™).
(§12) Test Analysis and Results
(§13) 6. The data obtained was analyzed using the data analysis software of CBIS (ChemInnovation, CA) to achieve EC50, and the test results are shown in Table 2.

S1P1 = S1P1 (Homo sapiens (Human), UniProt P21453); experiment: PathHunter β-arrestin test S1P1; format: cell-based; conditions: PathHunter β-arrestin engineering cells
Sequence of S1P1 (P21453 whole entry, species assumed): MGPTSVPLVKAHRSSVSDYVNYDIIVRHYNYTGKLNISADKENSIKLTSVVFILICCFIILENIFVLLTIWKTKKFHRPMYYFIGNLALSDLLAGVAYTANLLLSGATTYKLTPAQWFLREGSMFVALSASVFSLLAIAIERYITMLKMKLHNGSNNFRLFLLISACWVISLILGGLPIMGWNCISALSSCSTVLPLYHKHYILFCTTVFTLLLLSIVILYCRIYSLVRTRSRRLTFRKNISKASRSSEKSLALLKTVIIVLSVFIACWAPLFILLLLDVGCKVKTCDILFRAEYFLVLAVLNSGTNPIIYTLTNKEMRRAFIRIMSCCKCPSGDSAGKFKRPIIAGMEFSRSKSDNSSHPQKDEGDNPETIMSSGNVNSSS
Description: as §7, §8, §9, §10, §11, §12, §13

S1P5 = S1P5 (Homo sapiens (Human), UniProt Q9H228); experiment: Fluorescence detection FLIPR assay, activation of GPCR (S1P5); format: cell-based; conditions: total detection time 180 s, read-out: FLIPR Test EC50 S1P5
Sequence of S1P5 (Q9H228 whole entry, species assumed): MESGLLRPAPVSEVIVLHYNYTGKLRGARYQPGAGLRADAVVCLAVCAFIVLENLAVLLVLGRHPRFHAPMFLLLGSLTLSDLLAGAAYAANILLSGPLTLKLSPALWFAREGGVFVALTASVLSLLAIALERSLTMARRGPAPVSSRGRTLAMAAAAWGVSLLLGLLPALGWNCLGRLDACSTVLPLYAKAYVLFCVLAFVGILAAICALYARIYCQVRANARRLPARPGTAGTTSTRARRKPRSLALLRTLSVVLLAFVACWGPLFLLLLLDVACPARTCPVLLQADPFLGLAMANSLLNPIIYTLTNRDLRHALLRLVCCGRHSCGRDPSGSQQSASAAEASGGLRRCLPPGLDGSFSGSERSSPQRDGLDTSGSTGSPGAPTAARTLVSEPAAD
Description: The sample to be tested was dissolved in DMSO and diluted with detection buffer solution in 3-fold dilution. A reagent and a positive control were diluted in the same way.
The reactions of the agonist, the reagent and the positive control were detected by a device of […] with a total detection time of 180 s to estimate the ability to activate GPCR (S1P5) of each compound.

S1P4 = S1P4 (Homo sapiens (Human), UniProt O95977); experiment: PathHunter β-arrestin test S1P4; format: cell-based; conditions: PathHunter β-arrestin engineering cells
Sequence of S1P4 (O95977 whole entry, species assumed): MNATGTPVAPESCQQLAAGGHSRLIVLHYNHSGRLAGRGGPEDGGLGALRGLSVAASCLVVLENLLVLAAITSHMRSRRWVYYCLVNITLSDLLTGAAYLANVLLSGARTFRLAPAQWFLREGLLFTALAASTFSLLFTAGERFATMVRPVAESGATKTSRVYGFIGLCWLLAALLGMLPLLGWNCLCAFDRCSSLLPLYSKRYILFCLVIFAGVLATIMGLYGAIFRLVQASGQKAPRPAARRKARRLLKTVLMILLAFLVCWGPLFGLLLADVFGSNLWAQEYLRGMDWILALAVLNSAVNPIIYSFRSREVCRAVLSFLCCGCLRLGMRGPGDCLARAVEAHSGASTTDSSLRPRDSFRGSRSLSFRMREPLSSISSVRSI
Description: as §7, §8, §9, §10, §11, §12, §13

hERG potassium channel = hERG potassium channel (Homo sapiens (Human), UniProt Q12809); experiment: hERG patch clamp test in HEK293 engineering cells; format: cell-based; conditions: HEK293 cells stably expressing hERG potassium channel
Sequence of hERG potassium channel (Q12809 whole entry): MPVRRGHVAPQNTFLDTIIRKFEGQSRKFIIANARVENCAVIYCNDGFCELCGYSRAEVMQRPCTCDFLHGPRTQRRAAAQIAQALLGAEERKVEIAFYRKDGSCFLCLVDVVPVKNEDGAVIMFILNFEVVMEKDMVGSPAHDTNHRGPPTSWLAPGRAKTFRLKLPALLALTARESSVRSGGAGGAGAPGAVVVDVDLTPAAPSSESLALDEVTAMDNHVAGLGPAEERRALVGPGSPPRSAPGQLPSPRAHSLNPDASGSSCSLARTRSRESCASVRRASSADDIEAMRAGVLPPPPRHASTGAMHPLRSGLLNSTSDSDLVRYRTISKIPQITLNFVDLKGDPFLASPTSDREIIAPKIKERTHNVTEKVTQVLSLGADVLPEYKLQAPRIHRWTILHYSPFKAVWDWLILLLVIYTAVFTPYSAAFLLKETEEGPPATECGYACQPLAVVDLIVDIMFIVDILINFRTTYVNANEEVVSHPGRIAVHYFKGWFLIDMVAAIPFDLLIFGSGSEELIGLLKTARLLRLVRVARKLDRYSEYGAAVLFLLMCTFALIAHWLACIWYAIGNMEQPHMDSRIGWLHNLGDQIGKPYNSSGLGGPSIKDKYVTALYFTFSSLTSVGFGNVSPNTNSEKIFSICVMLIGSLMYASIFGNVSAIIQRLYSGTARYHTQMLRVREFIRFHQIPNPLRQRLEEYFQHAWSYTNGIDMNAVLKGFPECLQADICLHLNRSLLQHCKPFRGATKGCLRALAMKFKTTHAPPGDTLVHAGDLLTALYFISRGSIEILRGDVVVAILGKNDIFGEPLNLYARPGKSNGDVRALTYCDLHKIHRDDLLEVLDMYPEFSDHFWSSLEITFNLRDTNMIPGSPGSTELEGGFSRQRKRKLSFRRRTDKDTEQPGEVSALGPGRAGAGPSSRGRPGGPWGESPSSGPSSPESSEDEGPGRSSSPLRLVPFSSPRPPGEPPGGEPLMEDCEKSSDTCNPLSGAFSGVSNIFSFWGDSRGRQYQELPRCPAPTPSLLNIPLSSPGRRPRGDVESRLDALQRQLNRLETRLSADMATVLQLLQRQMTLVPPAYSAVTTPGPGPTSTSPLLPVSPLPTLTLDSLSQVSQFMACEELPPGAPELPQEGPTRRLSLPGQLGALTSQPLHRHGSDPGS
Description: 1. HEK293 engineering cells stably expressed with hERG potassium channel were used to test the compounds.
The cells were separated by TrypLE™ Express before the test. 3×10^3 of cells were spread on a cover plate, cultured in 24-well plate and tested 18 hours later. The signals produced by voltage stimulation of potassium currents in cells were recorded by electrophysiological techniques.
Data Analysis and Results
First of all, currents after the action of drug of each concentration and blank control were standardized separately
[formula] and then the corresponding inhibition ratio of each concentration was calculated
[formula] The average and the standard error were calculated for each concentration, and 50% inhibiting concentration of each compound was calculated according to the following equation: […]
The dose-dependent effect was obtained through nonlinear fitting with the equation above. C refers to drug concentration, IC50 refers to 50% inhibiting concentration and h refers to hill coefficient. The curve fitting and the calculation of IC50 were processed by IGOR software.

S1P2 = S1P2 (Homo sapiens (Human), UniProt O95136); experiment: PathHunter β-arrestin test S1P2; format: cell-based; conditions: PathHunter β-arrestin engineering cells
Sequence of S1P2 (O95136 whole entry, species assumed): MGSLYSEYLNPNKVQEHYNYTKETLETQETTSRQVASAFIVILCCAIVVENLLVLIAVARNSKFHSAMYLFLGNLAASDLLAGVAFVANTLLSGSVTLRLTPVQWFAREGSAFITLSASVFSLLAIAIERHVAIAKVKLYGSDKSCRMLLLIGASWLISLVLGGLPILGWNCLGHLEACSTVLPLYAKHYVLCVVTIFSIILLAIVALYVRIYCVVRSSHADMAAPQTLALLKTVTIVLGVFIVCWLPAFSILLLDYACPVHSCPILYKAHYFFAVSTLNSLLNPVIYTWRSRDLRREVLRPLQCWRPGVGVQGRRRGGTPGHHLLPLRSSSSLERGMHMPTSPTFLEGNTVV
Description: as §7, §8, §9, §10, §11, §12, §13

[4] = Stability observation on the isolated solid; format: physicochemical; conditions: white solid; stored at low temperature under the protection of nitrogen
Description: 0.426 g (0.727 mmol) of intermediate 80 was dissolved in 16 ml of methanol, added with 0.01 ml of concentrated hydrochloric acid, purged with nitrogen to remove air, followed by the addition of 0.09 g of palladium 10% on carbon, purged with hydrogen, and reacted overnight at 95° C. The reaction was monitored by TLC (DCM:MeOH=10:1). After the reaction was completed, the resulting mixture was filtered, and the filter cake was washed with hot methanol. The filtrate was concentrated by rotary evaporation, added with 1% sodium hydrate solution to adjust pH to 9-10. […] Yield: 8.5%. LC-MS: 406 [M+1]^+, tR=1.328 min. A corresponding hydrogenchloride salt was obtained by mixing the solid with a solution of hydrogen chloride in methanol under stirring.

Row | EC50 (S1P3) [nM] | EC50 (S1P1) [nM] | EC50 (S1P5) [nM] | EC50 (S1P4) [nM] | EC50 (S1P2) [nM] | stability of the solid [4] | SMILES | CD8 (%) ([1]; 1 mg/kg) | CD8 (%) ([1]; 5 mg/kg) | CD19 (%) ([2]; 1 mg/kg) | CD19 (%) ([2]; 5 mg/kg) | CD4 (%) ([3]; 1 mg/kg) | CD4 (%) ([3]; 5 mg/kg) | IC50 (hERG potassium channel) [nM]
1 |  |  |  |  |  |  | CC(C)Oc1ccc(-c2nnc(-c3ccc4c(c3)C[C@](N)(CO)CC4)o2)cc1F [Example 1, (S)-(2-amino-7-(5-(3-fluoro-4-isopropoxyphenyl)-1,3,4-oxadiazol-2-yl)-1,2,3,4-tetrahydronaphthalen-2-yl)methanol] | 10.0 | 1.8 | 39.0 | 17.5 | 10.9 | 1.2 | 
2 |  |  |  |  |  |  | CC(C)Oc1ccc(-c2nnc(-c3ccc4c(c3)C[C@](N)(CO)CC4)o2)cc1C(N)=O [Example 4, (S)-5-(5-(7-amino-7-(hydroxymethyl)-5,6,7,8-tetrahydronaphthalen-2-yl)-1,3,4-oxadiazol-2-yl)-2-isopropoxybenzamide] | 14.5 | 12.3 | 47.1 | 43.6 | 27.1 | 27.0 | 
3 |  |  |  |  |  |  | N[C@@]1(CO)CCc2ccc(-c3nnc(-c4cc(C(F)(F)F)cc(C(F)(F)F)c4)o3)cc2C1 [Example 12, (S)-(2-amino-7-(5-(3,5-bis(trifluoromethyl)phenyl)-1,3,4-oxadiazol-2-yl)-1,2,3,4-tetrahydronaphthalen-2-yl)methanol] | 9.6 | 3.4 | 53.2 | 38.1 | 15.2 | 2.8 | 
4 |  |  |  |  |  |  | N[C@@]1(CO)CCc2ccc(-c3nnc(-c4ccc(C(F)(F)F)c(F)c4)o3)cc2C1 [Example 11, (S)-(2-amino-7-(5-(3-fluoro-4-(trifluoromethyl)phenyl)-1,3,4-oxadiazol-2-yl)-1,2,3,4-tetrahydronaphthalen-2-yl)methanol] | 14.9 | 13.8 | 52.1 | 54.0 | 23.5 | 20.5 | 
5 | 2110 | 4.56 | 250 | > 100000 | > 100000 |  | CC(C)Oc1ccc(-c2nnc(-c3ccc4c(c3)C[C@](N)(CO)CC4)o2)cc1C#N [Example 3, (S)-5-(5-(7-amino-7-(hydroxymethyl)-5,6,7,8-tetrahydronaphthalen-2-yl)-1,3,4-oxadiazol-2-yl)-2-isopropoxybenzonitrile] | 11.9 | 6.1 | 39.3 | 24.7 | 22.1 | 7.2 | 7800
6 |  |  |  |  |  | prone to oxidative degradation | N[C@@]1(CO)CCc2ccc(-c3nnc(-c4ccc(O)c(C(F)(F)F)c4)o3)cc2C1 [Example 10, (S)-4-(5-(7-amino-7-(hydroxymethyl)-5,6,7,8-tetrahydronaphthalen-2-yl)-1,3,4-oxadiazol-2-yl)-2-(trifluoromethyl)phenol] | 15.3 | 14.0 | 44.3 | 35.7 | 31.1 | 27.7 | 
7 |  |  |  |  |  |  | N[C@@]1(CO)CCc2ccc(-c3nnc(-c4ccc(F)c(F)c4)o3)cc2C1 [Example 7, (S)-(2-amino-7-(5-(3,4-difluorophenyl)-1,3,4-oxadiazol-2-yl)-1,2,3,4-tetrahydronaphthalen-2-yl)methanol] | 14.5 | 9.2 | 45.2 | 40.6 | 26.5 | 13.4 | 
8 |  |  |  |  |  |  | CC(C)Oc1ccc(-c2nnc(-c3ccc4c(c3)C[C@](N)(CO)CC4)o2)cc1C(F)(F)F [Example 14, (S)-(2-amino-7-(5-(4-isopropoxy-3-(trifluoromethyl)phenyl)-1,3,4-oxadiazol-2-yl)-1,2,3,4-tetrahydronaphthalen-2-yl)methanol] |  |  |  |  |  |  | 870
9 | 613 | 21.6 | > 10000 | > 100000 | > 100000 |  | CCOc1ccc(-c2nnc(-c3ccc4c(c3)C[C@](N)(CO)CC4)o2)cc1OCC [Example 13, (S)-(2-amino-7-(5-(3,4-diethoxyphenyl)-1,3,4-oxadiazol-2-yl)-1,2,3,4-tetrahydronaphthalen-2-yl)methanol] | 12.7 | 9.4 | 56.8 | 53.8 | 23.4 | 11.6 | 
10 |  |  |  |  |  |  | COc1ccc(-c2nnc(-c3ccc4c(c3)C[C@](N)(CO)CC4)o2)cc1F [Example 8, (S)-(2-amino-7-(5-(3-fluoro-4-methoxyphenyl)-1,3,4-oxadiazol-2-yl)-1,2,3,4-tetrahydronaphthalen-2-yl)methanol] | 16.6 | 16.0 | 36.8 | 41.7 | 33.4 | 30.0 | 
11 |  |  |  |  |  |  | CC(=O)Nc1ccc(-c2nnc(-c3ccc4c(c3)C[C@](N)(CO)CC4)o2)cc1 [Example 9, (S)—N-(4-(5-(7-amino-7-(hydroxymethyl)-5,6,7,8-tetrahydronaphthalen-2-yl)-1,3,4-oxadiazol-2-yl)phenyl)acetamide] | 17.3 | 17.0 | 42.5 | 44.3 | 33.1 | 31.9 | 
12 |  |  |  |  |  |  | COc1ccc(-c2nnc(-c3ccc4c(c3)C[C@](N)(CO)CC4)o2)cc1C(F)(F)F [Example 6, (S)-(2-amino-7-(5-(4-methoxy-3-(trifluoromethyl)phenyl)-1,3,4-oxadiazol-2-yl)-1,2,3,4-tetrahydronaphthalen-2-yl)methanol] | 17.0 | 5.7 | 34.0 | 29.1 | 17.8 | 8.7 | 
13 |  |  |  |  |  |  | N#Cc1cc(-c2nnc(-c3ccc4c(c3)C[C@](N)(CO)CC4)o2)ccc1O [Example 5, (S)-5-(5-(7-amino-7-(hydroxymethyl)-5,6,7,8-tetrahydronaphthalen-2-yl)-1,3,4-oxadiazol-2-yl)-2-hydroxybenzonitrile] | 16.8 | 14.7 | 44.3 | 43.8 | 31.5 | 27.1 | 
14 |  |  |  |  |  |  | N[C@@]1(CO)CCc2ccc(-c3nnc(-c4ccc5c(c4)OCO5)o3)cc2C1 [Example 2] | 13.0 | 8.6 | 44.8 | 35.2 | 23.1 | 16.4 | 

Row | SMILES | EC50 (S1P3) [nM] | EC50 (S1P1) [nM] | EC50 (S1P5) [nM] | EC50 (S1P4) [nM] | EC50 (S1P2) [nM] | stability of the solid [4] | CD8 (%) ([1]; 1 mg/kg) | CD8 (%) ([1]; 5 mg/kg) | CD19 (%) ([2]; 1 mg/kg) | CD19 (%) ([2]; 5 mg/kg) | CD4 (%) ([3]; 1 mg/kg) | CD4 (%) ([3]; 5 mg/kg) | IC50 (hERG potassium channel) [nM]
15 | CCCCCCCCCCCCC/C=C/[C@@H](O)[C@@H](N)COP(=O)(O)O [Example S1P, sphingosine-1-phosphate, reference compound] | 26.3 | 25.2 |  | 190 |  |  |  |  |  |  |  |  | 
